Source: ChEMBL document CHEMBL1127229, “New non-peptide angiotensin II receptor antagonists. 1: structure - activity relationships of a series of a series of 2(1H)-pyridinones” (1994)

Each molecule was assayed on Rattus norvegicus (assay: In vivo potency determined for AII-induced pressor response in normotensive rats, iv administration). Settings: read-out: ID50 (the source's name).
Assay type: functional
Work on `CCCc1cc(O)c(C)c(=O)n1Cc1ccc(-c2ccccc2-c2nn[nH]n2)cc1` yielded an ED50 of 0.027 mg/kg. `CCCc1cc(C(=O)O)cc(=O)n1Cc1ccc(-c2ccccc2-c2nn[nH]n2)cc1` was tested, and the ED50 was 0.078 mg/kg. `CCCc1cc(CO)cc(=O)n1Cc1ccc(-c2ccccc2-c2nn[nH]n2)cc1` gave an ED50 of 0.3 mg/kg. Work on `CCCCc1cc(O)cc(=O)n1Cc1ccc(-c2ccccc2-c2nn[nH]n2)cc1` yielded an ED50 of 0.38 mg/kg. Molecule `CCCc1cc(SC)cc(=O)n1Cc1ccc(-c2ccccc2-c2nn[nH]n2)cc1` has an ED50 of 0.28 mg/kg. In the case of `CCCc1cc(S)cc(=O)n1Cc1ccc(-c2ccccc2-c2nn[nH]n2)cc1`, the ED50 was 0.017 mg/kg. For `CCCc1cc(OCc2cccnc2)cc(=O)n1Cc1ccc(-c2ccccc2-c2nn[nH]n2)cc1`, the ED50 was 0.72 mg/kg. `CCCc1cc(O)cc(=O)n1Cc1ccc(-c2ccccc2-c2nn[nH]n2)cc1` gave an ED50 of 0.048 mg/kg. For `CCCc1cc(C(=O)NCCN(C)C)cc(=O)n1Cc1ccc(-c2ccccc2-c2nn[nH]n2)cc1`, the ED50 was 0.18 mg/kg. `CCCc1cccc(=O)n1Cc1ccc(-c2ccccc2-c2nn[nH]n2)cc1` was tested, and the ED50 was 1.1 mg/kg. `CCc1cc(O)cc(=O)n1Cc1ccc(-c2ccccc2-c2nn[nH]n2)cc1` gave an ED50 of 0.084 mg/kg. `CCCc1cc(OC)cc(=O)n1Cc1ccc(-c2ccccc2-c2nn[nH]n2)cc1` showed an ED50 of 0.24 mg/kg. For `CCCCc1cc(O)c([N+](=O)[O-])c(=O)n1Cc1ccc(-c2ccccc2-c2nn[nH]n2)cc1`, the ED50 was 0.58 mg/kg. `CCCCc1nc(Cl)c(CO)n1Cc1ccc(-c2ccccc2-c2nnn[n-]2)cc1.[K+]` [LOSARTAN POTASSIUM] gave an ED50 of 1.2 mg/kg.

Each molecule was assayed on Rattus norvegicus (assay: Tested for lowering of Blood pressure in spontaneous hypertensive rat at a dose of 10mg/kg, po at 6 hr.). Settings: not given.
Assay type: functional
`CCCCc1cc(O)cc(=O)n1Cc1ccc(-c2ccccc2-c2nn[nH]n2)cc1` gave a BP decrease of 36%.

Each molecule was assayed on Rattus norvegicus (assay: In vivo potency determined for AII-induced pressor response in normotensive rats, iv). Settings: read-out: ID50 (the source's name).
Assay type: functional
`CCCc1cc(N)c([N+](=O)[O-])c(=O)n1Cc1ccc(-c2ccccc2-c2nn[nH]n2)cc1` was tested, and the ED50 was 4.8 mg/kg.
